Results: patent US11191742B2, “Methods of treating neurodegenerative disorders in a particular population” (ALZHEON, INC., priority 2015, dated 2021)

Experiments:
Assay type in all cases: in vivo, human
[1] = Phase I single dose study, plasma tramiprosate pharmacokinetics; conditions: single dose of oral ALZ-801
Source text: (§1) To advance the clinical development of ALZ-801 into Phase 3, we have completed single dose and 14-day multiple ascending dose Phase 1 bridging studies in healthy elderly volunteers to evaluate safety, tolerability and pharmacokinetics. […] The longer half-life observed in the multiple ascending dose studies was obtained after 14 days of BID dosing and was due to the fact that there were more extended blood sampling time points taken in that study as compared to the single dose study.

[2] = Phase I 14-day multiple ascending dose study, plasma tramiprosate pharmacokinetics; conditions: over 14 days
Source text: as §1

[3] = ALZ-801 immediate release tablet, pharmacokinetics and GI tolerability fed vs fasted

## CC(C)[C@H](N)C(=O)NCCCS(=O)(=O)O [ALZ-801, valyl-3-amino-1-propanesulfonic acid]
[1]
  Plasma exposure of tramiprosate compared with oral tramiprosate: equivalent plasma exposure of tramiprosate
[2]
  Dose proportionality and accumulation of plasma tramiprosate exposure: excellent dose proportionality without accumulation or decrease in plasma exposure
[3]; ALZ-801 immediate release tablet
  Incidence of GI symptoms with food compared to the fasted state: markedly reduced
[3]; ALZ-801 tablet, single dose of 205 mg
  Difference in pharmacokinetic parameters between fed and fasted subjects: no significant difference
